These are literature values, as cited in patent US10092495B2, “Use of a composition comprising avocado perseose in the protection of epidermal stem cells” (LABORATOIRES EXPANSCIENCE, priority 2013, dated 2018).

The data set deals with Ehrlich ascites tumor cells. Particulars: perseitol associated with a potassium ion.

For the compound `OCC(O)C(O)C(O)C(O)C(O)CO` (stereo not shown) [perseitol, Perseitol], the “incorporation of 3H-leucine” value is “inhibit”.
